Results published in patent US4794197A, “All-cis-1,3,5-triamino-2,4,6,-cyclohexanetriol derivatives, their use, processes for their preparation and pharmaceutical preparations containing them” (priority 1985, dated 1988).
Like-named read-outs stand apart in the source and are kept apart here. One block for each compound: values may come before it.

Columns and labels:
[1] = test system: rats with an excessively high iron level; assay: elimination of iron from rats with an excessively high iron level by excretion in urine and faeces after intravenous administration; type: in vivo; details: over 72 hours, by comparison with Desferal (= 1)
Excerpt: (§1) all-cis-1,3,5-Triamino-2,4,6-cyclohexanetriol (10), all-cis-1,3,5-tris-(dimethylamino)-2,4,6-cyclohexane triol hydrochloride (12a), all-cis-1,3,5-tris-(trimethylammonio)-2,4,6-[…] (19c) and all-cis-1,3,5-tris-(succinoylamino)-2,4,6-cyclohexanetriol are found to have the following values in mg/kg of body weight in the orientating LD50 -toxicity test on white mice after intravenous injection: 158, 440, 235 and >1000. The elimination of iron from rats with an excessively high iron level by excretion in the urine and faeces after intravenous administration is shown in the following Table by comparison with the figures obtained with Desferal. The rates of excretion were measured over 72 hours after application.

[2] = orientating LD50-toxicity test on white mice after intravenous injection; details: mouse, in vivo
Excerpt: as §1

[3] = Response to β-FeO(OH): dissolution of this rust; details: in words
Solubility = type: physicochemical
[4] = parenteral; cited from earlier work
[5] = cited from earlier work
pK-values (approximate) = type: physicochemical
[6] = Response to iron(III): keeping iron(III) in solution by complex formation; type: physicochemical
[7] = general statement on toxicity
[8] = pK4, fourth lowest value of the list
[9] = pK5, fifth lowest value of the list
[10] = pK6, sixth lowest value of the list
[11] = pK2, second lowest value of the list
[12] = pK3, third lowest value of the list
[13] = white mice, intravenous injection, orientating test, read-out: LD50

Compound: CN(C)[C@H]1[C@@H](O)[C@@H](N(C)C)[C@@H](O)[C@@H](N(C)C)[C@H]1O [Example 12a, all-cis-1,3,5-Tris-(dimethylammonio)-2,4,6-cyclohexanetriol trichloride dihydrate]
elimination of iron by excretion in the faeces [1]: 0.5 | elimination of iron by excretion in the urine [1]: 1 | LD50 ([2]; iv): 440 mg/kg

Compound: CCCCN(CC(=O)O)[C@H]1[C@@H](O)[C@@H](N(CCCC)CC(=O)O)[C@@H](O)[C@@H](N(CCCC)CC(=O)O)[C@H]1O [Example 15, all-cis-1,3,5-(N-butylammonioacetic acid)-2,4,6-cyclohexanetriol trichloride]
Response to β-FeO(OH) [3]: Identical to Examples 13 and 14

Compound: CN(C)[C@H]1[C@@H](O)[C@@H](N(C)C)[C@@H](O)[C@@H](N(C)C)[C@H]1O [Example 12b, all-cis-1,3,5-Tris-(dimethylammonio)-2,4,6-cyclohexanetriol sulphate]
solubility in boiling methanol (Solubility; boiling methanol): virtually insoluble

Compound: CC(=O)N(O)CCCCCNC(=O)CCC(=O)N(O)CCCCCNC(=O)CCC(=O)N(O)CCCCCN [Desferal, 30-amino-3,14,25-trihydroxy-3,9,14,20,25-pentaaza-2,10,13,21,24-triacontane-pentanone-methane sulphonate, reference compound]
elimination of iron by excretion in the faeces [1]: 1 | elimination of iron by excretion in the urine [1]: 1 | half life in the body [4]: very short | serious side effects after prolonged administration [5]: visual disturbances

pKa (pK-values (approximate); [8]): ~5.7 | pKa (pK-values (approximate); [9]): ~7.8 | pKa (pK-values (approximate); [10]): ~8.9 | pKa (pK-values (approximate); three lowest pK-values): < 3
Compound: O=C(O)CN[C@H]1[C@@H](O)[C@@H](NCC(=O)O)[C@@H](O)[C@@H](NCC(=O)O)[C@H]1O [Example 13, all-cis-1,3,5-Tris-(ammonioacetic acid)-2,4,6-cyclohexanetriol trichloride]
precipitation of iron hydroxide ([6]; ligand:iron ratio of 1:1, pH higher than about 11): Iron hydroxide precipitates

pKa (pK-values (approximate); pK1, lowest value of the list): ~3 | pKa (pK-values (approximate); [11]): ~4.5 | pKa (pK-values (approximate); [12]): ~6.3
Compound: N#CCCN[C@H]1[C@@H](O)[C@@H](NCCC#N)[C@@H](O)[C@@H](NCCC#N)[C@H]1O [all-cis-1,3,5-tris-(2'-aminopropionitrile)-2,4,6-cyclohexanetriol]

pKa (pK-values (approximate); pK1, lowest value of the list): ~5.2 | pKa (pK-values (approximate); [11]): ~6 | pKa (pK-values (approximate); [12]): ~6.5 | pKa (pK-values (approximate); [8]): ~7 | pKa (pK-values (approximate); [9]): ~8 | pKa (pK-values (approximate); [10]): ~9.5
Compound: O=P(O)(O)CN[C@H]1[C@@H](O)[C@@H](NCP(=O)(O)O)[C@@H](O)[C@@H](NCP(=O)(O)O)[C@H]1O [Example 11, all-cis-1,3,5-Tris-(ammoniomethanephosphonic acid)-2,4,6-cyclohexanetriol trichloride]

pKa (pK-values (approximate); highest pK of nitrile intermediate): ~6.5 | pKa (pK-values (approximate); next lowest pK of nitrile intermediate): ~3
Compound: N#CCN[C@H]1[C@@H](O)[C@@H](NCC#N)[C@@H](O)[C@@H](NCC#N)[C@H]1O [all-cis-1,3,5-tris-(aminoacetic acid nitrile)-2,4,6-cyclohexanetriol]

Compound: O=C(O)CCC(=O)N[C@H]1[C@@H](O)[C@@H](NC(=O)CCC(=O)O)[C@@H](O)[C@@H](NC(=O)CCC(=O)O)[C@H]1O [Example 16, all-cis-1,3,5a-tris-(succinoylamino)-2,4,6-cyclohexanetriol]
Solubility (Solubility; cyclohexane): sparingly | Solubility (Solubility; water): Readily | Solubility (Solubility; water/EtOH): Readily | Solubility (Solubility; water/MeOH): Readily | LD50 [2, 13]: > 1000 mg/kg

Compound: C[N+](C)(C)[C@H]1[C@@H](O)[C@@H]([N+](C)(C)C)[C@@H](O)[C@@H]([N+](C)(C)C)[C@H]1O [Example 19c]
elimination of iron by excretion in the faeces [1]: 0.5 | elimination of iron by excretion in the urine [1]: 0.2 | LD50 [2, 13]: 235 mg/kg

pKa (pK-values (approximate); pK1, lowest value of the list): ~6.2 | pKa (pK-values (approximate); [11]): ~8.2 | pKa (pK-values (approximate); [12]): ~9.7 | solubility of the iron complex ([6]; pH 3 to 6): relatively sparingly soluble
Compound: O=C(O)CCN[C@H]1[C@@H](O)[C@@H](NCCC(=O)O)[C@@H](O)[C@@H](NCCC(=O)O)[C@H]1O [Example 12]
pH range in which a solution containing Fe(III) and ligand is clear ([6]; Fe(III):ligand=1:1, result in words): clear over the entire ranges of pH | maximum Fe(III) kept in solution per ligand ([6]; pH 7.5): ≤ 2 Fe(III) per ligand

Compound: N[C@H]1[C@@H](O)[C@@H](N)[C@@H](O)[C@@H](N)[C@H]1O [Example 10, all-cis-1,3,5-Triamino-2,4,6-cyclohexanetriol]
toxicity [7]: relatively low toxicity | elimination of iron by excretion in the faeces [1]: 0.2 | elimination of iron by excretion in the urine [1]: 0.1 | LD50 [2, 13]: 158 mg/kg
